Values after ≈ are worked out from the molar mass of the structure shown. Where two headings read alike, the source gives them in different places.

Assay [1] deals with isolates of E. coli with NDM and PBP3 mutations. Description: MIC, broth microdilution. In kind it is cell-based. To be noted: Escherichia coli, read-out: median MICs. (Dilution methods test growth across graded concentrations, often in twofold steps.)
Assay [2] has as its system E. coli ATCC BAA-2469 (NDM-1). Description: Lethal mouse model of systemic infection. To be noted: Escherichia coli, ATCCBAA2469, in Mus musculus, sc.
Assay [3] deals with Serine-carbapenemase-producing Enterobacterales (6). Description: MIC and MBC testing. In kind it is cell-based. To be noted: 6 serine-carbapenemase-producing Enterobacterales; fixed BLI concentration (μg/mL) in label.
Assay [4] concerns Carbapenemase-producing P. aeruginosa (7). Description: MIC and MBC testing. In kind it is cell-based, Pseudomonas aeruginosa. To be noted: 7 carbapenemase-producing P. aeruginosa; fixed BLI concentration (μg/mL) in label.
The subject of assay [5] is Klebsiella pneumoniae ATCC BAA-2344 (KPC-2). Description: Lethal mouse model of systemic infection. To be noted: ATCCBAA2344, in Mus musculus.
For assay [6], the system named is P. aeruginosa CDC-110 (VIM-2). Description: MIC, broth microdilution. Format: cell-based. To be noted: Pseudomonas aeruginosa, agent alone.
The subject of assay [7] is E. coli ATCC BAA-2469 (NDM-1). Description: MIC, broth microdilution. Format: cell-based, Escherichia coli.
Assay [8] concerns the target NDM-6 (Klebsiella pneumoniae, UniProt C7C422, A233V). The experiment in a line: Ki app determination (Waley's method).
For assay [9], the system named is Prevotella buccae KUB2992. The experiment in a line: MIC, agar dilution, reference strains of anaerobic bacteria. Format: cell-based. To be noted: Segatella buccae. On the technique in general: In agar dilution, organisms are placed on agar that contains the substance at set levels.
Assay [10] concerns the target OXA-48 (Klebsiella pneumoniae, UniProt Q6XEC0). The experiment in a line: Ki app determination (Waley's method).
The target of assay [11] is SHV-5 (Klebsiella pneumoniae, UniProt P0A3M1). The experiment in a line: Ki app determination (Waley's method).
Assay [12] relates to Bacteroides fragilis ATCC 25285. The experiment in a line: MIC, agar dilution, reference strains of anaerobic bacteria. To be noted: ATCC25285. Format: cell-based.
Assay [13] concerns Clostridioides difficile ATCC BAA-1870. The assay is described as above. In kind it is cell-based. To be noted: ATCCBAA1870.
The subject of assay [14] is Prevotella intermedia KUB2991. The assay is described as above. Format: cell-based.
Assay [15] concerns 12 Gram-positive strains (including methicillin-sensitive staphylococci and streptococci). Description: Intrinsic antibacterial activity, MIC. To be noted: KSP-1007 alone. In kind it is cell-based.
Assay [16] addresses VIM-1 (Pseudomonas aeruginosa, UniProt A0A0F7KYQ8). The experiment in a line: Ki app determination (Waley's method).
In assay [17] the test system is Olsenella uli KUB3012. The experiment in a line: MIC, agar dilution, reference strains of anaerobic bacteria. In kind it is cell-based.
The test system of assay [18] is Actinomyces odontolyticus ATCC 17929. The description is as above. In kind it is cell-based. To be noted: Schaalia odontolytica, ATCC17929.
The target in assay [19] is KPC-3 (Klebsiella pneumoniae, UniProt Q9F663, H272Y). The experiment in a line: Ki app determination (Waley's method).
Assay [20] deals with Fusobacterium varium ATCC 27725. The experiment in a line: MIC, agar dilution, reference strains of anaerobic bacteria. To be noted: ATCC27725. Format: cell-based.
Assay [21] has as its system Bacteroides thetaiotaomicron ATCC 29741. The assay is described as above. To be noted: ATCC29741. In kind it is cell-based.
For assay [22], the system named is Prevotella histicola KUB2989. Described as above. In kind it is cell-based.
Assay [23] deals with Clostridioides difficile ATCC 43255. The assay is described as above. To be noted: ATCC43255. Format: cell-based.
For assay [24], the target named is class A carbapenemase KPCs. Description: Ki app determination, range over enzymes. To be noted: read-out: Ki app values, range.
Assay [25] deals with CTX-M-14 (Escherichia coli, UniProt Q9L5C7). Description: Ki app determination (Waley's method).
The test system of assay [26] is Bacteroides fragilis KUB2982. Description: MIC, agar dilution, reference strains of anaerobic bacteria. In kind it is cell-based.
The target in assay [27] is OXA-72 (Acinetobacter baumannii, UniProt Q5XQU0). The experiment in a line: Ki app determination (Waley's method).
Assay [28] addresses CTX-M-15 (Escherichia coli, UniProt Q9EXV5). Description: Ki app determination (Waley's method).
Assay [29] deals with NDM-4 (Klebsiella pneumoniae, UniProt C7C422, M154L). Description: Ki app determination (Waley's method).

Chain of CTX-M-15 (Q9EXV5 29-291, species assumed): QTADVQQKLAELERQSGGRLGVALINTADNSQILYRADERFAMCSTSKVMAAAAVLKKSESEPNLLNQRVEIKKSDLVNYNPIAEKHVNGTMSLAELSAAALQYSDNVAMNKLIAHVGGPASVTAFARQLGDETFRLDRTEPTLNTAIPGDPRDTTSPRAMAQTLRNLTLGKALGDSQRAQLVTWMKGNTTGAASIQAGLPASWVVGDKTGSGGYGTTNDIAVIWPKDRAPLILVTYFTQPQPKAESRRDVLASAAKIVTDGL

As for `CC(C)(O/N=C(\C(=O)N[C@@H]1C(=O)N2C(C(=O)[O-])=C(C[N+]3(CCNC(=O)c4ccc(O)c(O)c4Cl)CCCC3)CS[C@H]12)c1csc(N)n1)C(=O)O` [FDC, cefiderocol], the MIC in assay [1] is 4 µg/mL (≈ 5.32 µM).
As for `C[C@@H](O)[C@H]1C(=O)N2C(C(=O)O)=C(S[C@@H]3CN[C@H](C(=O)N(C)C)C3)[C@H](C)[C@H]12` [MEM, meropenem], the ED50 in assay [2] (read-out: ED50 of MEM (95% confidence intervals), E. coli ATCC BAA-2469, Experiment 1, single sc dose, survival day 7, dose ratio in label) turned out to be 103 mg/kg; in assay [2] (read-out: ED50 of MEM (95% confidence intervals), E. coli ATCC BAA-2469, Experiment 2, single sc dose, survival day 7, dose ratio in label), 118 mg/kg; in [5] (read-out: ED50 of MEM (95% confidence intervals), K. pneumoniae ATCC BAA-2344, Experiment 1, single sc dose 2 h after ip inoculation, survival day 7, dose ratio in label), 205 mg/kg; in assay [5] (read-out: ED50 of MEM (95% confidence intervals), K. pneumoniae ATCC BAA-2344, Experiment 2, single sc dose 2 h after ip inoculation, survival day 7, dose ratio in label), 54.8 mg/kg. For the same compound, the results for the MIC Range in assay [3] and in [4] were 1 to 64 µg/mL and 64 to 256 µg/mL, respectively. The MBC range in assay [4] is 64 to 256 µg/mL. Besides, the MIC worked out at 64 µg/mL (≈ 167 µM) in assay [6]; 32 µg/mL (≈ 83.4 µM) in assay [7] (Escherichia coli, ATCCBAA2469, Experiment 1, agent alone, read-out: MIC); 32 µg/mL (≈ 83.4 µM) in [7] (Experiment 2, agent alone).
In the case of `N[C@@H](C(=O)N1CC(Oc2ccc3c(c2C(=O)O)OB(O)CC3)C1)c1c[nH]cn1` [KSP-1007, 7-({1-[(2R)-2-amino-2-(1H-imidazol-4-yl)acetyl]azetidin-3-yl}oxy)-2-hydroxy-3,4-dihydro-2H-1,2-benzoxaborinine-8-carboxylic acid], the Ki in assay [8] is 1050 nM; in assay [10], 0.861 ± 0.0767 nM; in assay [11], 127 ± 16 nM; in assay [16], 350 ± 45.4 nM; in assay [19], 2.19 ± 0.687 nM; in assay [24], 0.836 to 2.19 nM. The Ki in assay [25] was 0.153 ± 0.0235 nM; in [27], 0.621 ± 0.0248 nM; in assay [28], 0.0664 ± 0.015 nM; in assay [29] it was 153 ± 45.2 nM. Also, the MIC in [9] was 8 µg/mL (≈ 20.7 µM); in assay [12], 8 µg/mL (≈ 20.7 µM); in assay [13], more than 256 µg/mL; in [14] it was 4 µg/mL (≈ 10.4 µM); in assay [17], 64 µg/mL (≈ 166 µM); in [18], 256 µg/mL (≈ 663 µM). For the same compound, the MIC in assay [20] is more than 256 µg/mL; in [21], 64 µg/mL (≈ 166 µM); in [22], 8 µg/mL (≈ 20.7 µM); in assay [23], more than 256 µg/mL; in [26], 16 µg/mL (≈ 41.4 µM). Also, the “MICs, range” value in assay [15] fell in the range of 0.25 to 8 µg/mL.

The values are drawn from publication PMC11620503 (Antimicrobial Agents and Chemotherapy, 2024).
